Molecules are shown by their SMILES.

This assay deals with T1, rat serum albumin (RSA) (Rattus norvegicus, UniProt P02770).
T1 construct: gene Alb
Nature of the assay: Trp214 fluorescence quenching titration (steady-state, double-log Ka; IDF/Scatchard Kb […] ^−[…]), static mechanism confirmed by time-resolved fluorescence. The note with it: read-out: Ka (×10^4 M^-1) (converted). Format: binding.

T1 sequence (P02770 25-608): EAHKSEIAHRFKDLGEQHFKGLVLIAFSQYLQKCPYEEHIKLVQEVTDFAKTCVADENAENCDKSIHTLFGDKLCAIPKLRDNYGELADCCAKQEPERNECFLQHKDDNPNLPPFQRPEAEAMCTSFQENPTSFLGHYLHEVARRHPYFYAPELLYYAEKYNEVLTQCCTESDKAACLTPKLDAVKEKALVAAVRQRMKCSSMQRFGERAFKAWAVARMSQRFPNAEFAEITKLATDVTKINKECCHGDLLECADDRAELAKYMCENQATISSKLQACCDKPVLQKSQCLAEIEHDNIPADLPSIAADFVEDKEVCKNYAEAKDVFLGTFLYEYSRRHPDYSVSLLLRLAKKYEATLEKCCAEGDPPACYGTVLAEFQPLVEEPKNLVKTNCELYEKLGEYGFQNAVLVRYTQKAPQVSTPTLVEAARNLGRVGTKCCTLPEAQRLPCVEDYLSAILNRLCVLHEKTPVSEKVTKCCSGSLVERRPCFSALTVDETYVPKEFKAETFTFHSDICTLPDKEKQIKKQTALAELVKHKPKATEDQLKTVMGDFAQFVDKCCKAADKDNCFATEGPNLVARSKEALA

Regarding `O=C(/C=C/C=C/c1ccc2c(c1)OCO2)N1CCCCC1` [piperine], the Kd is 25.6 µM.

For the origin of these results see paper PMC6627779, “Experimental Approaches and Computational Modeling of Rat Serum Albumin and Its Interaction with Piperine” (International Journal of Molecular Sciences, 2019).
